Assay [1] concerns the target T1, Nox5 (Homo sapiens, UniProt Q96PH1).
T1 construct: expressed in transfected cells; host or cells: HEK-Nox5 cells (gift of D. Fulton)
T1 sequence (Q96PH1 19-737 isoform Q96PH1-3 limits assumed): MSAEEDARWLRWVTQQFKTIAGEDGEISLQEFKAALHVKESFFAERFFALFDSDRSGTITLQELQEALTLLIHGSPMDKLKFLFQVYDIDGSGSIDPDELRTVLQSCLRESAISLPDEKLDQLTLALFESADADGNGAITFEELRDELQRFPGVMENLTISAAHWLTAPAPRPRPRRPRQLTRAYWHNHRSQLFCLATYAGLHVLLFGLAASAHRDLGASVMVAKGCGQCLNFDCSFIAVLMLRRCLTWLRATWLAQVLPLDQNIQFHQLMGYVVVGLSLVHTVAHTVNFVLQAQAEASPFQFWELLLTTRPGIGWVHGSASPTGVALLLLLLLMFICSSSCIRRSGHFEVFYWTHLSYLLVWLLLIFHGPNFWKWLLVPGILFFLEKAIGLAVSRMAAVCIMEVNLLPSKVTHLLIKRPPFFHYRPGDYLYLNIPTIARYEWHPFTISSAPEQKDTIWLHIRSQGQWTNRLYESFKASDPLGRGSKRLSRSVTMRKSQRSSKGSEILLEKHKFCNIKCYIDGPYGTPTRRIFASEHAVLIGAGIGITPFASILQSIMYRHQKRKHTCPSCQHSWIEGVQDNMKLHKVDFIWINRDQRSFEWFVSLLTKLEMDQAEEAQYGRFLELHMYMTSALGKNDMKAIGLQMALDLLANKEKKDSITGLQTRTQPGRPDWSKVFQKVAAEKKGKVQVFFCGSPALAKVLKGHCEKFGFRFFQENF
As to the kind of experiment: Nox5 activity in HEK-Nox5 cells, L-012 assay. Particulars: for IC50: HEK-Nox5 cells stimulated with 1 μM PMA and 0.5 ionomycin, L-012, read-out: IC50 of ROS generation, Nox5 (L-012 assay). In kind it is cell-based. From the text: (§1) All cell culture reagents were obtained from Invitrogen, unless indicated. COS-22 (COS-7 cells stably expressing human p22^phox) and COS-Nox2 (a.k.a. COS-phox) cells (COS-7 cells stably expressing human p22^phox, Nox2, p47^phox and p67^phox) were kindly provided by Dr. Mary C. Dinauer (Indiana University, School of Medicine) (Price et al., Blood, 2002, 99:2653-2661). COS-22 cells were maintained in Dulbecco's Modified Eagle Medium (DMEM) with 4.5 g/L glucose, L-glutamine and sodium pyruvate containing 10% heat-inactivated fetal bovine serum (FBS), 100 units/ml penicillin and 100 μg/ml streptomycin (complete media) supplemented with 1.8 mg/ml G418 (Calbiochem/EMB Bioscience, Gibbstown, N.J.). COS-Nox2 cells were maintained in complete media supplemented with 1.8 mg/mL G418, 1 μg/mL puromycin (Sigma, St Louis, Mo.) and 0.2 mg/mL hygromycin B (Invitrogen, Carlsbad, Calif.). HEK-Nox5 cells were kindly provided by Dr. David Fulton (Georgia Health Sciences University) and maintained in complete media.
COS-Nox2, COS-Nox1/NOXO1/NOXA1, HEK-Nox5 and COS-22 cells were re-plated in OPTIMEM into 384-well white micro-plates (Greiner-Bio One GmbH, Germany) at a density of 2.5×10^3 cells/well for COS-Nox2 and 5×10^4 cells/well for all others. The cells were incubated at 37° C. in PBS containing 400 μm L-012 for 10 min. […] Since Nox1 was constitutively active, Nox1-derived O2^•− was assessed by comparison to non-transfected cells (Cos22). Luminescence was quantified over time using a Biotek Synergy 4 Hybrid Multi-Mode Microplate Reader. The specificity of L-012 for O2^•− was confirmed by the addition of SOD (150 U/mL).
(§2) All data are expressed as means±SEM. IC50 values were determined using the GraphPad Prism software (GraphPad Software, San Diego, Calif.) for non-linear regression three-parameters, with constrain values of 100 and 0 for top and bottom, respectively, and assumes a Hill slope of 1.

In assay [2] the target is T2, Nox2 (Homo sapiens, UniProt P04839).
T2 construct: expressed in transfected cells
T2 sequence (P04839 2-570 limits assumed): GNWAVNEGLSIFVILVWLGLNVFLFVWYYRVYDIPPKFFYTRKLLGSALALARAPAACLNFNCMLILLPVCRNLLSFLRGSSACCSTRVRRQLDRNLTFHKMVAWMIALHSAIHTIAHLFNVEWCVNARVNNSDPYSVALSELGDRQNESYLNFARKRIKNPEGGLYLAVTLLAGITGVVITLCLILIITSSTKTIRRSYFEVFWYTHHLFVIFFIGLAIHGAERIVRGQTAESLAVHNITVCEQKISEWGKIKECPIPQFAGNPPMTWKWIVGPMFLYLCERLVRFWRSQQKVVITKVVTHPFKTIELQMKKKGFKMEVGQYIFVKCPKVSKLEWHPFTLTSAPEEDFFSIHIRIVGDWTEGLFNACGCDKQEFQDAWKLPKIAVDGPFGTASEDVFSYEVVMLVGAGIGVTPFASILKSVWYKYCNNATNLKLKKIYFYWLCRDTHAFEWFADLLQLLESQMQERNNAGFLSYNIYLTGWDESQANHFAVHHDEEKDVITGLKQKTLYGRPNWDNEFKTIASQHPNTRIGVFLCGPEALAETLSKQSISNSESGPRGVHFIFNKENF
As to the kind of experiment: ROS (superoxide) generation in whole COS-Nox2 cells, L-012 chemiluminescence. Format: cell-based. Particulars: for IC50: whole COS-Nox2 cells stimulated with 5 μM PMA.
Excerpt: as §1
COS-Nox2, COS-Nox1/NOXO1/NOXA1, HEK-Nox5 and COS-22 cells were re-plated in OPTIMEM into 384-well white micro-plates (Greiner-Bio One GmbH, Germany) at a density of 2.5×10^3 cells/well for COS-Nox2 and 5×10^4 cells/well for all others. The cells were incubated at 37° C. in PBS containing […] L-012 for 10 min. Reaction was initiated by addition of 5 μM PMA in the case of Nox2 or 1 μM PMA/0.1 μM Ionomycin in the case of Nox5. Since Nox1 was constitutively active, Nox1-derived O2^•− was assessed by comparison to non-transfected cells (Cos22). Luminescence was quantified over time using a Biotek Synergy 4 Hybrid Multi-Mode Microplate Reader. The specificity of L-012 for O2^•− was confirmed by the addition of SOD (150 U/mL).
as §2
Heterologous Nox1, 2, 4, and 5 cell systems were used as a testing paradigm to identify a probe molecule that inhibits Nox2 selectively over Nox1, 4, and 5. An acceptable probe would also show a lack of activity against XO, which also produces ROS. The latter screen would serve two purposes: (1) to eliminate drugs that inhibit an oxidase of distinct composition; and (2) to preclude agents that directly scavenge ROS. A cell-based primary assay using stable Nox2-transfected COS cells (Price et al., Blood 2002, 99:2653-2661) with L-012 chemiluminescence (Daiber et al., Free Radic. Biol. Med. 2004, 36:101-111) was used as a detection system for O2^•−-generation.

A value given as a limit tells only on which side of the number the result lay.

As for `C=C(C)CC1C2c3c(Br)cccc3C(CC2(C)C)N1S(C)(=O)=O` (racemic) [Compound 14a, (±)-(1S,4R,9S)-5-Bromo-3,3-dimethyl-9-(2-methylallyl)-10-(methylsulfonyl)-1,2,3,4-tetrahydro-1,4-(epiminomethano)naphthalene], the IC50 in assay [1] and in assay [2] was > 100 µM each time.
With `C=C(C)CC1C2c3c(Br)cccc3C(CC2(C)C)N1S(=O)(=O)c1ccc(F)cc1` (racemic) [Compound 14b, (±)-(1S,4R,9S)-5-Bromo-10-((4-fluorophenyl)sulfonyl)-3,3-dimethyl-9-(2-methylallyl)-1,2,3,4-tetrahydro-1,4-(epiminomethano)naphthalene], the IC50 in assay [1] and in assay [2] was > 100 µM in each case.
As to `C=C(C)C[C@@H]1N[C@H]2CC(C)(C)[C@@H]1c1c(Br)ccc(Br)c12` [Compound 9], the IC50 in assay [1] is 36 µM; in assay [2], 40 ± 2.8 µM. Besides, the “Nox5 inhibitory activity” value in assay [1] (Table 2) is reported as “active”. Further, the “Activity in primary library screen” value in assay [2] (screened at 100, 50, 25, and 12.5 μM, COS-Nox2 cells) was “active”.

Values taken from patent US10906876B2, “Tetrahydroisoquinolines as selective NADPH oxidase 2 inhibitors” (University of Pittsburgh—Of the Commonwealth System of …, priority 2013, dated 2021).
